# Assay results taken from article PMC12655527, “An Investigational Study on the Role of ADME Agents’ Genetic Variation on DD217 Pharmacokinetics and Safety Profile” (Pharmaceuticals, 2025).
# What was measured:
# CYP = test system: CYP; set-up: method as in DrugBank. Betrixaban (DB12364); conditions: ref DrugBank. Betrixaban (DB12364); cited from earlier work
# P-glycoprotein (ABCB1) = test system: P-glycoprotein (ABCB1); set-up: method as in earlier work; conditions: cited from earlier work
# [1] = test system: patients undergoing knee replacement surgery; assay: Bleeding events during 14-day therapy, phase II trial; type: in vivo, human
# Text: (§1) The design, eligibility criteria, and outcomes of the phase II clinical trial evaluating the safety and tolerability of DD217 (NCT05189002, ClinicalTrials.gov) have been described previously. Briefly, this was a multicenter, double-blind, randomized, prospective phase II study designed to determine the optimal dosing regimen and to assess the safety and efficacy of DD217 for the prevention of venous thromboembolism (VTE) in patients undergoing knee replacement surgery. Patients were randomized into one of three groups: two groups received oral DD217 at doses of 40 mg or 60 mg once daily, starting on the morning of the first postoperative day, and one group received the active comparator, dalteparin sodium. The treatment duration was 14 days.
# (§2) In total, seven cases of DVT/PE were documented during the trial: four in the DD217 40 mg/day group, one in the DD217 60 mg/day group, and two in the dalteparin sodium group. In addition, two bleeding events were recorded: one clinically relevant non-major bleed in the DD217 60 mg/day group and one clinically non-relevant minor bleed in the dalteparin sodium group.
# [2] = test system: patients undergoing knee replacement surgery; assay: Thromboembolic complications (DVT/PE) during 14-day therapy, phase II trial; type: in vivo, human; conditions: 14 days
# Text: as §1, §2
"bleeding events ([1]; dalteparin sodium group, clinically non-relevant minor bleed)",Compound,share of metabolism via CYP (CYP),P-glycoprotein (ABCB1) substrate status (P-glycoprotein (ABCB1)),"Bleeding, n (safety outcomes) ([1]; dalteparin sodium, 14 days, of 18 patients)",cases of DVT/PE ([2]; dalteparin sodium group (18 patients)),"PE/DVT, n (safety outcomes) ([2]; dalteparin sodium, of 18 patients)"
–,COc1ccc(NC(=O)c2ccc(C(=N)N(C)C)cc2)c(C(=O)Nc2ccc(Cl)cn2)c1 [Betrixaban],< 1%,P-glycoprotein (ABCB1) substrate,–,–,–
one,dalteparin sodium [reference compound],–,–,1 n,two,2 n
